Data: US20030004172A1, “Fused pyrimidinone matrix metalloproteinase inhibitors” (priority 2001, published 2003)
pIC50: −log10 of the molar value.

Biological target: MMP-13CD (catalytic domain of collagenase-3) (Homo sapiens, UniProt P45452)
Test: Thiopeptolide substrate hydrolysis inhibition assay, MMP-13CD
Assay type: biochemical
Settings: Table I; thiopeptolide substrate, HEPES pH 7.0, 22° C.; read-out: MMP-13CD IC50
Source text: Thiopeptolide substrates show virtually no decomposition or hydrolysis at or below neutral pH in the absence of a matrix metalloproteinase enzyme.

| Compound | pIC50 |
| --- | --- |
| Cn1c(=O)n(Cc2ccccc2)c(=O)c2cc(C(=O)NCc3cccnc3)sc21 [Example 339, 3-Benzyl-1-methyl-2,4-dioxo-1,2,3,4-tetrahydro-thieno[2,3-d]pyrimidine-6-carboxylic acid (pyridin-3-ylmethyl)-amide] | 6.42 |
| COc1ccc(CNC(=O)c2cc3c(=O)n(Cc4ccccc4)c(=O)n(C)c3s2)cc1 [Example 340, 3-Benzyl-1-methyl-2,4-dioxo-1,2,3,4-tetrahydro-thieno[2,3-d]pyrimidine-6-carboxylic acid 4-methoxy-benzylamide] | 6.92 |
| COc1cccc(CCNC(=O)c2cc3c(=O)n(Cc4ccccc4)c(=O)n(C)c3s2)c1 [Example 342, 3-Benzyl-1-methyl-2,4-dioxo-1,2,3,4-tetrahydro-thieno[2,3-d]pyrimidine-6-carboxylic acid[2-(3-methoxy-phenyl)-ethyl]-amide] | < 4.00 |
| COc1cccc(CNC(=O)c2cc3c(=O)n(Cc4ccccc4)c(=O)n(C)c3s2)c1 [Example 343, 3-Benzyl-1-methyl-2,4-dioxo-1,2,3,4-tetrahydro-thieno[2,3-d]pyrimidine-6-carboxylic acid 3-methoxy-benzylamide] | 7.36 |
| Cn1c(=O)n(Cc2ccccc2)c(=O)c2cc(C(=O)NCc3cccs3)sc21 [Example 344, 3-Benzyl-1-methyl-2,4-dioxo-1,2,3,4-tetrahydro-thieno[2,3-d]pyrimidine-6-carboxylic acid (thiophen-2-ylmethyl)-amide] | 5.44 |
| Cn1c(=O)n(Cc2ccccc2)c(=O)c2cc(C(=O)NCc3ccccc3Cl)sc21 [Example 345, 3-Benzyl-1-1-methyl-2,4-dioxo-1,2,3,4-tetrahydro-thieno[2,3-d]pyrimidine-6-carboxylic acid 2-chloro-benzylamide] | 4.52 |
| Cc1ccc(CNC(=O)c2cc3c(=O)n(Cc4ccccc4)c(=O)n(C)c3s2)o1 [Example 346, 3-Benzyl-1-methyl-2,4-dioxo-1,2,3,4-tetrahydro-thieno[2,3-d]pyrimidine-6-carboxylic acid (5-methyl-furan-2-ylmethyl)-amide] | 5.00 |
| Cn1c(=O)n(Cc2ccccc2)c(=O)c2cc(C(=O)NCC(c3ccccc3)c3ccccc3)sc21 [Example 347, 3-Benzyl-1-methyl-2,4-dioxo-1,2,3,4-tetrahydro-thieno[2,3-d]pyrimidine-6-carboxylic acid (2,2-diphenyl-ethyl)-amide] | 4.80 |
| COc1ccccc1CCNC(=O)c1cc2c(=O)n(Cc3ccccc3)c(=O)n(C)c2s1 [Example 348, 3-Benzyl-1-methyl-2,4-dioxo-1,2,3,4-tetrahydro-thieno[2,3-d]pyrimidine-6-carboxylic acid[2-(2-methoxy-phenyl)-ethyl]-amide] | 4.52 |
| Cn1c(=O)n(Cc2ccccc2)c(=O)c2cc(C(=O)NCCc3cccc(C(F)(F)F)c3)sc21 [Example 349, 3-Benzyl-1-methyl-2,4-dioxo-1,2,3,4-tetrahydro-thieno[2,3-d]pyrimidine-6-carboxylic acid[2-(3-trifluoromethyl-phenyl)-ethyl]-amide] | < 4.00 |
| Cn1c(=O)n(Cc2ccccc2)c(=O)c2cc(C(=O)NCc3ccc(Br)cc3)sc21 [Example 350, 3-Benzyl-1-methyl-2,4-dioxo-1,2,3,4-tetrahydro-thieno[2,3-d]pyrimidine-6-carboxylic acid 4-bromo-benzylamide] | 6.03 |
| Cn1c(=O)n(Cc2ccccc2)c(=O)c2cc(C(=O)NCCc3c[nH]c4ccccc34)sc21 [Example 351, 3-Benzyl-1-methyl-2,4-dioxo-1,2,3,4-tetrahydro-thieno[2,3-d]pyrimidine-6-carboxylic acid[2-(1H-indol-3-yl)-ethyl]-amide] | 5.70 |
| Cn1c(=O)n(Cc2ccccc2)c(=O)c2cc(C(=O)NCc3cc(Cl)cc(Cl)c3)sc21 [Example 352, 3-Benzyl-1-methyl-2,4-dioxo-1,2,3,4-tetrahydro-thieno[2,3-d]pyrimidine-6-carboxylic acid 3 ,5-dichloro-benzylamide] | < 4.00 |
| Cn1c(=O)n(Cc2ccccc2)c(=O)c2cc(C(=O)NC3CCc4ccccc43)sc21 (stereo not drawn) [Example 353, 3-Benzyl-1-methyl-2,4-dioxo-1,2,3,4-tetrahydro-thieno[2,3-d]pyrimidine-6-carboxylic acid indan-1-ylamide] | < 4.00 |
| Cn1c(=O)n(Cc2ccccc2)c(=O)c2cc(C(=O)NCc3ccco3)sc21 [Example 354, 3-Benzyl-1-methyl-2,4-dioxo-1,2,3,4-tetrahydro-thieno[2,3-d]pyrimidine-6-carboxylic acid (furan-2-ylmethyl)-amide] | 4.52 |
| COc1ccc(CCNC(=O)c2cc3c(=O)n(Cc4ccccc4)c(=O)n(C)c3s2)cc1 [Example 355, 3-Benzyl-1-methyl-2,4-dioxo-1,2,3,4-tetrahydro-thieno[2,3-d]pyrimidine-6-carboxylic acid[2-(4-methoxy-phenyl)-ethyl]-amide] | < 4.00 |
| COc1ccc(CNC(=O)c2cc3c(=O)n(Cc4ccccc4)c(=O)n(C)c3s2)c(OC)c1 [Example 356, 3-Benzyl-1-methyl-2,4-dioxo-1,2,3,4-tetrahydro-thieno[2,3-d]pyrimidine-6-carboxylic acid 2,4-dimethoxy-benzylamide] | 5.00 |
| Cn1c(=O)n(Cc2ccccc2)c(=O)c2cc(C(=O)NCc3ccc(Cl)cc3)sc21 [Example 357, 3-Benzyl-1-methyl-2,4-dioxo-1,2,3,4-tetrahydro-thieno[2,3-d]pyrimidine-6-carboxylic acid 4-chloro-benzylamide] | 6.49 |
| CC(NC(=O)c1cc2c(=O)n(Cc3ccccc3)c(=O)n(C)c2s1)c1ccccc1 (stereo not drawn) [Example 358, 3-Benzyl-1-methyl-2,4-dioxo-1,2,3,4-tetrahydro-thieno[2,3-d]pyrimidine-6-carboxylic acid (1-phenyl-ethyl)-amide] | < 4.00 |
| Cn1c(=O)n(Cc2ccccc2)c(=O)c2cc(C(=O)NCc3ccc(Cl)c(Cl)c3)sc21 [Example 359, 3-Benzyl-1-methyl-2,4-dioxo-1,2,3,4-tetrahydro-thieno[2,3-d]pyrimidine-6-carboxylic acid 3,4-dichloro-benzylamide] | 6.00 |
| Cn1c(=O)n(Cc2ccccc2)c(=O)c2cc(C(=O)NCc3ccc(F)c(C(F)(F)F)c3)sc21 [Example 360, 3-Benzyl-1-methyl-2,4-dioxo-1,2,3,4-tetrahydro-thieno[2,3-d]pyrimidine-6-carboxylic acid 4-fluoro-3-trifluoromethyl-benzylamide] | 6.57 |
| Cn1c(=O)n(Cc2ccccc2)c(=O)c2cc(C(=O)NCCc3ccccn3)sc21 [Example 361, 3-Benzyl-1-methyl-2,4-dioxo-1,2,3,4-tetrahydro-thieno[2,3-d]pyrimidine-6-carboxylic acid (2-pyridin-2-yl-ethyl)-amide] | 5.11 |
| Cc1ccc(CCNC(=O)c2cc3c(=O)n(Cc4ccccc4)c(=O)n(C)c3s2)c(C)c1 [Example 362, 3-Benzyl-1-methyl-2,4-dioxo-1,2,3,4-tetrahydro-thieno[2,3-d]pyrimidine-6-carboxylic acid[2-(2,4-dimethyl-phenyl)-ethyl]-amide] | < 4.00 |
| Cn1c(=O)n(Cc2ccccc2)c(=O)c2cc(C(=O)NCCc3ccc(Cl)cc3Cl)sc21 [Example 363, 3-Benzyl-1-methyl-2,4-dioxo-1,2,3,4-tetrahydro-thieno[2,3-d]pyrimidine-6-carboxylic acid[2-(2,4-dichloro-phenyl)-ethyl]-amide] | 4.52 |
